Source: US7041699B2, “Nutrient pharmaceutical formulation comprising polyphenols and use in treatment of cancer” (Matthias Rath, priority 2002, dated 2006)

Experiments:
[1] = system: MDA-MB 231 human breast cancer cells; assay: Matrigel invasion and migration, MDA-MB-231
Description: The studies were conducted using Matrigel (Becton Dickinson) inserts in compatible 24-well plates. Fibroblasts were seeded and grown in the wells of the plate using DMEM. When fibroblasts reached confluence, the medium was withdrawn and replaced with 750 μl of the media designated for the treatment. The cancer cells (5×10^4) suspended in 250 μl of the medium supplemented with nutrients as specified in the design of the experiment were seeded on the insert in the well. Thus both the medium on the insert and in the well contained the same supplements. The plates with the inserts were then incubated (in air-circulating incubator for MDA-MB-231 cells and 5% CO2 incubator for colon cancer cells and melanoma cells) for 18–20 hours. After incubation, the media from the wells was withdrawn. The cells on the upper surface of the inserts were gently scrubbed away with cotton swab. The cells that had penetrated the Matrigel membrane and had migrated on the lower surface of the Matrigel were stained with hemacolor stain (EM Sciences) and were visually counted under the microscope. The results were subjected to ANOVA and all the possible pairs were tested for significance at p<0.05.
The media in different studies were supplemented with ascorbic acid, proline, lysine and EGCG at concentrations as indicated.
MDA-MB 231 (ATCC) breast cancer cells were seeded on Matrigel insert in an improved Matrigel Invasion Chamber (BD). Conditioned media from normal human dermal fibroblast (Clonetics) supplemented with various agents (as indicated on FIG. 1) were added to the well. The chamber was incubated for 24 hours and the cells that had invaded the Matrigel membrane and had migrated into the lower surface of the membrane were counted.

[2] = system: HCT116 human colon cancer cells; assay: Matrigel invasion and migration, HCT116; format: cell-based
Description: The studies were conducted using Matrigel (Becton Dickinson) inserts in compatible 24-well plates. Fibroblasts were seeded and grown in the wells of the plate using DMEM. When fibroblasts reached confluence, the medium was withdrawn and replaced with 750 μl of the media designated for the treatment. The cancer cells (5×10^4) suspended in 250 μl of the medium supplemented with nutrients as specified in the design of the experiment were seeded on the insert in the well. Thus both the medium on the insert and in the well contained the same supplements. […] After incubation, the media from the wells was withdrawn. The cells on the upper surface of the inserts were gently scrubbed away with cotton swab. The cells that had penetrated the Matrigel membrane and had migrated on the lower surface of the Matrigel were stained with hemacolor stain (EM Sciences) and were visually counted under the microscope. The results were subjected to ANOVA and all the possible pairs were tested for significance at p<0.05. […]
HTCT116 (ATCC) human colon cancer cells were seeded on Matrigel insert in an improved Matrigel Invasion Chamber (BD). […] The chamber was incubated for 24 hours and the cells that had invaded the Matrigel membrane and had migrated into the lower surface of the membrane were counted.

[3] = system: human breast cancer cells MDA-MB-231; assay: MTT cell proliferation/growth, breast cancer MDA-MB-231
MMP-2 and MMP-9 = assay: Gelatinase zymography, melanoma cells; format: cell-based, human; conditions: overall / dose dependence
Description: Gelatinase zymography was performed in 10% Novex pre-cast polyacrylamide gel (Invitrogen) in the presence of 0.1% gelatin. Culture media (20 μl) was loaded and SDS-PAGE was performed with tris-glysine SDS buffer. After electrophoresis, the gels were washed with 5% Triton X-100 for 30 minutes and stained. Protein standards were run concurrently and approximate molecular weights were determined.
The effect of EGCG on melanoma cells with basal and ascorbic acid, proline, and lysine supplementation on expression of MMPs is depicted in FIG. 9 by gelatinase zymography. […] The intensity of bands for basal and ascorbic acid, lysine and proline combination were the same.

[4] = system: A2058 human melanoma cells; assay: Matrigel invasion and migration, melanoma cells; format: cell-based; conditions: conditioned media from NHDF, 24 hours
Description: The studies were conducted using Matrigel (Becton Dickinson) inserts in compatible 24-well plates. Fibroblasts were seeded and grown in the wells of the plate using DMEM. When fibroblasts reached confluence, the medium was withdrawn and replaced with 750 μl of the media designated for the treatment. The cancer cells (5×10^4) suspended in 250 μl of the medium supplemented with nutrients as specified in the design of the experiment were seeded on the insert in the well. Thus both the medium on the insert and in the well contained the same supplements. The plates with the inserts were then incubated (in air-circulating incubator for MDA-MB-231 cells and 5% CO2 incubator for colon cancer cells and melanoma cells) for 18–20 hours. After incubation, the media from the wells was withdrawn. The cells on the upper surface of the inserts were gently scrubbed away with cotton swab. The cells that had penetrated the Matrigel membrane and had migrated on the lower surface of the Matrigel were stained with hemacolor stain (EM Sciences) and were visually counted under the microscope. […]
A2058 (ATCC) human melanoma cells were seeded on Matrigel insert in improved Matrigel Invasion Chamber (BD). […] The chamber was incubated for 24 hours and the cells that had invaded the Matrigel membrane and had migrated into the lower surface of the membrane were counted.

[5] = system: human melanoma cell line A2058; assay: MTT cell proliferation/growth, melanoma cells

| Compound | invasion reduced by ([1]; MDA-MB-231, another series, 100 μM ascorbic acid, 140 μM proline) [%] | Matrigel invasion and migration (FIG. 1) ([1]; MDA-MB 231, conditioned media from NHDF, 24 hours) | Matrigel invasion (number of invading cells) compared to non-supplemented media ([1]; MDA-MB-231, EGCG 20 μg/ml) [%] | Matrigel invasion ([1]; MDA-MB-231, EGCG 50 μg/ml and 100 μg/ml) | Matrigel invasion of colon cancer cells (reduced to) ([2]; EGCG 20 μg/ml) [%] | Matrigel invasion and migration (FIG. 2) ([2]; conditioned media from NHDF, 24 hours) | cell number compared to control ([3]; EGCG 50 μg/ml) [%] | cell number compared to control ([3]; EGCG 100 μg/ml) [%] | cell number compared to control ([3]; EGCG 200 μg/ml) [%] | cell number compared to unsupplemented controls ([3]; EGCG up to 20 μg/ml) | expression of MMP-2 and MMP-9 (zymography bands) (MMP-2 and MMP-9) | Matrigel invasion and migration (FIG. 3) [4] | cell proliferation (cell number, Basal = 100) ([5]; EGCG 50 μg/ml) [%] | cell proliferation (cell number, Basal = 100) ([5]; EGCG 10 and 20 μg/ml) |
| --- | --- | --- | --- | --- | --- | --- | --- | --- | --- | --- | --- | --- | --- | --- |
| O=C1O[C@H]([C@@H](O)CO)C(O)=C1O [ascorbic acid] | 36 | – | – | – | – | – | – | – | – | – | – | – | – | – |
| O=C(O[C@@H]1Cc2c(O)cc(O)cc2O[C@@H]1c1cc(O)c(O)c(O)c1)c1cc(O)c(O)c(O)c1 [EGCG, (−)-epigallocatechin-3-gallate] | – | inhibitory effect | 69.5±27.4 | complete inhibition | 44.9±3.3 | inhibitory effect | 66.1±5.3 | 33.6±2 | 29.6±0.8 | did not have any significant inhibitory effect | inhibitory effect on their expression in a dose dependent fashion | inhibitory effect | 30 | Neither lysine, proline, and ascorbic acid nor EGCG at 10 and 20 μg/ml had any significant effect |
